Laboratory results published in patent publication US20110269812A1, “NOVEL BENZYLIDENE-INDOLINONE AND THEIR MEDICAL AND DIAGNOSTIC USES” (Agency for Science, Technology and Research, priority 2008, published 2011).
Where two headings read alike, the source gives them in different places.

Legend:
[1] = test system: HCT116 cells; assay: Cell cycle of synchronized HCT116 cells by flow cytometry (FACS); type: cell-based, human; details: for Proportion of cells in G1 / Proportion of cells in G2/M / Proportion of cells in S / Proportion of cells in Sub-G1: 24 h; for type of cell cycle arrest caused: HCT116 cells, ≈1.5 × IC50, 24 h
Method: HCT116 cells were grown to confluence and maintained in this state for at least 5 days without change of media. The serum starved cells were then trypsinized and subcultured at densities of 5×10^5 cells/well in six-well plates. Growth media contained 10% fetal calf serum. The test compound was added either immediately to cells synchronized at G1 phase, or 24 h later when cells were synchronized at G2 phase. The cells were incubated with test compound for 24 h from the time of addition. After this time, the cells were harvested, trypsinized and fixed in 70% ice-cold ethanol for a minimum of 24 h. After centrifugation, the supernatant was discarded and the pellet was treated with RNase A (200 μg/ml) for 30 min at room temperature, followed by cell staining using propidium iodide at a final concentration of 20 μg/ml. The stained cells were then analyzed for cell cycle distribution in the sub-G1, G1, S and G2/M phases on a Dako Cytomation Cyan LX (Dako Colorado, Fort Collins, Colo., USA) equipped with an argon solid state laser (488 nm) using the Summit (version 4.3) software. Compounds were tested at a concentration of ≈1.5×IC50, with IC50 determined by the MTT assay on HCT116 cells.
To have a better understanding of the mechanisms underlying the antiproliferative activities of the compounds listed in Table 5, their effects on the cell cycle was investigated by fluorescence-activated cell sorter (FACS) analysis using flow cytometry. The experiments were designed to examine the effects of the test compounds on synchronized cell populations at the GI or G2/M phase. G1 synchronized cells were obtained by growing cells to confluence for up to 5 days and then stimulating their re-entry into the cell cycle by sub-culturing at lower densities. After 24 hours of growth, these cells would be aligned at the G2/M phase.
Cells aligned at the G2/M phase were similarly treated.

[2] = test system: HCT116 (human colon cancer cell line); assay: Antiproliferative MTT assay, HCT116; type: cell-based; details: 72 h incubation, mean ± SD
Method: (§1) The antiproliferative activity of the compounds according to the invention was determined by the MTT assay on the following cell lines: MCF7 (human breast cancer cell line), HCT116 (human colon cancer cell line), and CCL186 (normal human diploid embryonic lung fibroblast). […] MCF7 and CCL186 cells were cultured in Eagle's Minimum Essential Medium (EMEM) with 1 mM sodium pyruvate, 1.5 g/L sodium bicarbonate, 2 mM L-glutamine supplemented with 10% FBS and 0.01% antibiotics. HCT116 cells were cultured in McCoy's 5A Medium with 2.2 g/L sodium bicarbonate supplemented with […] and 0.01% antibiotics. Cells were plated at the following densities: 10000 cells/well (MCF7), 4000 cells/well (HCT116), 5000 cells/well (CCL186). They were grown for 24 h in a 96-well plate, with 100 μl of corresponding medium in each well. The test compounds were prepared in DMSO and diluted to a series of concentrations with medium. Not more than 1% DMSO (final concentration) was present in each well. The test compounds were incubated with the cells for 72 h, after which 100 μl MTT solution (0.5 mg/ml in 1× PBS) was added for 3 h and the cells lysed to release the formazan product. The latter was dissolved in DMSO (150 μl) and absorbance determined within 30 min at 590 nm on a microtitre plate reader. Cell survival was given by the expression:
(§2) Cell survival (%)=[(Acells+test compound−Ablank)/(Auntreated cells−Ablank)]×100
(§3) where A is the absorbance of formazan measured at 590 nm in the test (Acells+test compound), control (Auntreated cells) or blank (Ablank) wells. Each concentration of test compound was evaluated on 3 separate occasions. […] The MTT assay was also carried out on Hepa1c1c7 cells for the purpose of determining cytotoxicity of test compounds. The same procedure was adopted except that the incubation period of compound with cells was 48 h, instead of 72 h.
The compounds were initially screened at a fixed concentration of 10 μM on the human cancer cell lines HCT116 and MCF7 cells.

[3] = test system: Hepa1c1c7 cells; assay: MTT growth inhibition / cytotoxicity on Hepa1c1c7 cells; type: cell-based, murine; details: Mus musculus, Hepa-1c1c7, 48 h, highest concentration tested 25 μM
Method: as §1, §2, §3

[4] = test system: HepG2; assay: cells; type: cell-based, human; details: for IC50 / viability at 10 µM: Homo sapiens; for IC50: HepG2, 72 h, read-out: IC50 HepG2; for viability at 10 µM: HepG2, 72 h, vs vehicle-treated controls, read-out: Percentage viability HepG2; for SR(HepG2/THLE2) safety ratio: percentage viability at 10 μM normalized with THLE2
Method: (§4) Cells were plated at 5000-7000 cells/per well and incubated for 24 h before treatment. […] Cell Titer-Glo (Promega, Madison, Wis.) assay was performed according to manufacturer's instruction with luminescence detected on SpectraMax M5 (Molecular Devices, Sunnyvale, Calif.). Data was expressed as percentage of viability vs. vehicle-treated controls.
(§5) The anti-cancer potential of these compounds against HCC were tested using a phenotypic assay where compounds were screened over 100-fold concentration range (0.1 to 10 μM) using two representative liver cancer cell lines, HepG2 and HuH7. Additionally, THLE2 was employed as normal hepatocyte cell line to differentiate anti-cancer potential from non-specific cytotoxicities.
(§6) Cell viability assay shown in FIG. 2 was analyzed by Prism5 for the determination of respective IC50 values.
(§7) Cell viability was determined as described previous in Table 7. Percentage viability at 10 μM treatments was determined and safety ratios were calculated by normalizing survival in HCC cell lines to THLE2.

[5] = test system: HuH7; assay: cells; type: cell-based, human; details: for IC50 / viability at 10 µM: Homo sapiens; for IC50: Huh-7, 72 h, read-out: IC50 HuH7; for viability at 10 µM: Huh-7, 72 h, vs vehicle-treated controls, read-out: Percentage viability HuH7; for SR(HuH7/THLE2) safety ratio: percentage viability at 10 μM normalized with THLE2
Method: as §4, §5, §6, §7

[6] = HCT 116 cells released from G2 Block, 2.5 μM
[7] = HCT 116 cells released from G1 Block, 15 μM
[8] = HCT 116 cells released from G2 Block, 15 μM
[9] = Homo sapiens, HCT-116, 72 h, n = 3
[10] = HCT 116 cells released from G1 Block, 5 μM
[11] = HCT 116 cells released from G2 Block, 5 μM

| SMILES | melting point [°C] | type of cell cycle arrest caused [1] | IC50 ([2]; n = 3, read-out: IC50 HCT-116) [nM] | IC50 [3] [nM] | IC50 [4] [nM] | viability at 10 µM [4] [%] | SR(HepG2/THLE2) safety ratio [4] | IC50 [5] [nM] | viability at 10 µM [5] [%] | SR(HuH7/THLE2) safety ratio [5] | Proportion of cells in G1 [1, 7] [%] | Proportion of cells in G2/M [1, 7] [%] | Proportion of cells in S [1, 7] [%] | Proportion of cells in Sub-G1 [1, 7] [%] | Proportion of cells in G1 [1, 8] [%] | Proportion of cells in G2/M [1, 8] [%] | Proportion of cells in S [1, 8] [%] | Proportion of cells in Sub-G1 [1, 8] [%] | IC50 [2, 9] [nM] | also measured |
| --- | --- | --- | --- | --- | --- | --- | --- | --- | --- | --- | --- | --- | --- | --- | --- | --- | --- | --- | --- | --- |
| COc1cccc(/C=C2/C(=O)Nc3cc(OC)ccc32)c1 [Compound 42, (E)-6-Methoxy-3-(3-methoxybenzylidene)indolin-2-one] | 161 to 163 | G2 arrest | 1300 ± 400 | 9800 | 2200 | 20.7 ± 2 | 1.89 | 4000 | 49.2 ± 4 | 0.79 |  |  |  |  |  |  |  |  |  | Proportion of cells in G1 [1, 6]: 26.01%; Proportion of cells in G2/M [1, 6]: 43.57%; Proportion of cells in S [1, 6]: 15.36%; Proportion of cells in Sub-G1 [1, 6]: 30.54% |
| COc1ccc2c(c1)NC(=O)/C2=C/c1ccc(OC)c(O)c1 [Compound 45, (E)-3-(3-Hydroxy-4-methoxybenzylidene)-6-methoxyindolin-2-one] | 184 to 186 | G2 arrest | 7800 ± 900 | 9800 | 1400 | 19.9 ± 1.4 | 3.61 | 8000 | 46.6 ± 1.8 | 1.54 | 17.49 | 56.49 | 21.13 | 5.26 | 26.01 | 43.57 | 15.36 | 15.54 | < 10000 |  |
| O=C1Nc2cc(F)ccc2/C1=C\c1cccc(C(F)(F)F)c1 [Compound 46, (E)-6-Fluoro-3-(3-(trifluoromethyl)benzylidene)indolin-2-one] | 132 to 135 | G1 arrest | 8900 ± 300 | 2200 | 400 | 4.2 ± 0.3 | 17.19 | 1100 | 11.3 ± 1 | 6.39 | 64.93 | 14.58 | 8.04 | 12.68 | 64.15 | 25.00 | 8.82 | 2.49 | < 10000 |  |
| O=C1Nc2cc(Cl)ccc2/C1=C\c1cccc(C(F)(F)F)c1 [Compound 47, (E)-6-Chloro-3-(3-(trifluoromethyl)benzylidene)indolin-2-one] | 204 to 207 | G1 arrest | 7500 ± 400 | 1100 | 600 | 1.1 ± 0.09 | 65.27 | 500 | 3.3 ± 0.2 | 21.76 | 65.55 | 15.13 | 7.10 | 12.39 | 53.47 | 28.39 | 8.05 | 10.62 | < 10000 |  |
| COc1ccc2c(c1)NC(=O)/C2=C/c1cccc(C(F)(F)F)c1 [Compound 48, (E)-6-Methoxy-3-(3-(trifluoromethyl)benzylidene)indolin-2-one] | 157 to 160 | G2 arrest | 3800 ± 600 | 2600 | 400 | 14.5 ± 1.3 | 2.40 | 2300 | 27.3 ± 0.5 | 1.27 |  |  |  |  |  |  |  |  |  | Proportion of cells in G1 [1, 10]: 17.50%; Proportion of cells in G2/M [1, 10]: 59.16%; Proportion of cells in S [1, 10]: 19.12%; Proportion of cells in Sub-G1 [1, 10]: 4.39%; Proportion of cells in G1 [1, 11]: 30.55%; Proportion of cells in G2/M [1, 11]: 31.58%; Proportion of cells in S [1, 11]: 17.96%; Proportion of cells in Sub-G1 [1, 11]: 20.69% |
